A word on the Ki: it is a dissociation constant, usually derived from enzyme kinetics or from competition with a known ligand.

The values that follow come from PMC5374409, “D11-Mediated Inhibition of Protein Kinase CK2 Impairs HIF-1α-Mediated Signaling in Human Glioblastoma Cells” (Pharmaceuticals, 2017).

The target of the test is T1, protein kinase CK2 (CK2α) (Homo sapiens, UniProt P68400).
T1 construct: gene CSNK2A1
The experiment in a line: radioactive kinase assay with recombinant CK2 and synthetic peptide, varied ATP, Michaelis-Menten re-plots. It counts as biochemical.

T1 sequence (P68400 1-335): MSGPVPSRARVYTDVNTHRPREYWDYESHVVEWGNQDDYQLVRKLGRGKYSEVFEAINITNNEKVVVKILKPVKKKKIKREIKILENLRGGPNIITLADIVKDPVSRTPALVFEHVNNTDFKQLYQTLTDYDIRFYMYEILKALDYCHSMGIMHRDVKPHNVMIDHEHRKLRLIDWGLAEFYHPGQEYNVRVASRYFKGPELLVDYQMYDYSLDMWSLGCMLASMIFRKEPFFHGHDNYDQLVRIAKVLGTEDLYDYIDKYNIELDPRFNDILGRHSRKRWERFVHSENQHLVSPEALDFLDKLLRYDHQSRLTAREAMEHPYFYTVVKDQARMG
T1 sequence (P67870 2-215 partner): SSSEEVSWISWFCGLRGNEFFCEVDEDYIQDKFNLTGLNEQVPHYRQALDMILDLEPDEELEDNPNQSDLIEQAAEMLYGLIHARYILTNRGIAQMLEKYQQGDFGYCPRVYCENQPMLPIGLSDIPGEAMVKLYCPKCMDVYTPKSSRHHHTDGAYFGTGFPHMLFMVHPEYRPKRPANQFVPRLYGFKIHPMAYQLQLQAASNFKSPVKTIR

As for `COc1ccc(/N=C/c2c(O)ccc3c2oc2cc(Cl)c(O)c(Cl)c23)cc1` [D11, 1,3-dichloro-6-[(E)-((4-methoxyphenyl)imino)methyl]dibenzo(b,d)furan-2,7-diol], the Ki stood at 7.7 nM.
